In US20250332212A1, “METHOD FOR TREATING OR PREVENTING ALOPECIA” (Suzhou Mingren Pharmaceutical Biotechnology Co., Ltd., priority 2024, published 2025):
Square brackets hold non-standard residues; d marks the D form. Ends that are not written are not given here. pS = N[C@@H](COP(=O)(O)O)C(=O)O

Columns and labels:
[1] = tested on: TP-induced AGA model mice; assay: TP-induced AGA model, Animal model I (JP1 intraperitoneal or topical skin-coating); assay type: in vivo, C57BL/6J male mice
From the text: C57BL/6 mice were selected for modeling in this example according to the first design scheme (FIG. 1A). For more details, see “Animal model I” of “1. TP-induced AGA model” in “Experimental Methods” below.
The mice used in this study were 5-week-old C57BL/6J male mice (18-20 g), which were purchased from Jiangsu Jicui Pharmachem Biotechnology Co. All the animals used in the experiments were housed in the SPF-level environment of the Medical Laboratory Animal Center of Nanjing Medical University, and the relevant animal experimental operations were approved by the Animal Ethics Committee of Nanjing Medical University. The control group was left untreated, and the other groups were injected with TP subcutaneously on their backs every day. Two weeks later, the hair on the backs of the mice was shaved with an electric razor, covering an area of 2 cm×4 cm, and then the residual hair was removed with a hair removal cream. The subcutaneous injections of TP on the shaved backs of the mice in the AGA model was continued until the end of the experimental period, and the administration of TP in each of the treatment groups was begun on the 1st day of the dehairing process.
In addition to the normal control group (denoted as control) n=3, all mice injected subcutaneously with TP were randomly divided into the following groups (n=3): the model group (denoted as model), the 1 wt. % JP1 and 2% JP1 (intraperitoneal), the 1% JP1 and 2% JP1 (topical skin-coating, denoted as apply), the 5% minoxidil group, and the 2% JP1 (intraperitoneal) combined with 5% minoxidil group. The mice were administered continuously for 35 days, euthanized.
Mice were weighed every two days during the experiment. Skin color was assessed against skin score charts. The mice were euthanized and treated at the end of the experiment, and skin tissues were taken from the dorsal decorticated area of the mice. Some of the tissues were fixed with 4% paraformaldehyde solution and then paraffin sections were made for H&E or immunofluorescence staining, etc., and some of the tissues were stored in the refrigerator at −80° C. for relevant molecular expression assays (qRT-PCR, Western Blot, IP, etc.).
8.1) Sampling and fixation: After the experiment, skin tissue was taken from the depilated area on the back of the mouse and placed in a 10 mL EP tube. 4% paraformaldehyde was added to the EP tube, and all tissues were immersed to denature and coagulate the proteins of the skin tissue. The original morphology and structure of the cells were maintained.
8.6) H&E staining: the sections pretreated in distilled water were put into aqueous hematoxylin solution for a few minutes for staining. The color was separated in acid water and ammonia for a few seconds each. After rinsing in running water for 1 h, the sections were placed in distilled water for a few moments. The sections were dehydrated in 70% and 90% alcohol for 10 min each, and stained in alcoholic eosin stain for 2-3 min.

β-catenin = β-catenin expression in skin tissue (qPCR, immunoblotting, immunofluorescence); assay type: in vivo, mouse
Experimental: (§1) 4.1) Protein extraction: 70 mg of skin tissue was placed in a 1.5 mL centrifuge tube, and 500 μL of tissue lysate RIPA containing protease inhibitor and phosphatase inhibitor was added. The tissue was placed on an ice box, pulverized by a tissue grinder, and then ultrasonically crushed to obtain a tissue suspension, which was then placed in a rotary windmill at 4° C. to be lysed for 2 h. The centrifuge was set at 12,000×g, 4° C., centrifuged for 15 min, and the supernatant was collected as the total protein.
(§2) 5.1) Heating of protein samples: the total protein content of each tissue was 50 μg; calculate the volume of a corresponding protein sample, make up the volume with saline to 16 μL, then add 4 μL of 5×SDS sampling buffer, heat at 100° C. for 5 min, and then cool at room temperature and store at −20° C.
(§3) 5.7) Primary antibody incubation: the cut protein bands were placed into the corresponding primary antibody and incubated at 4° C. on a shaker overnight, washed with TBST 3 times for 10 min/time.
(§4) 7.1) Dilute the specific gene amplification primers to 10 µM in ddH2O, prepare the qPCR reaction system according to the instructions in the kit and add them sequentially into a 384-well plate.
(§5) 7.3) Relative mRNA expression levels of genes were calculated by the […] relative quantification method using GAPDH as an internal reference.
9.5) Primary antibody incubation: the tissue was circled by the histochemical pen, about 50 μL of primary antibody was added dropwise to the tissue, and incubated in a wet box overnight at 4° C., washed 3 times with PBS.

Wnt1, Wnt3a, Wnt7b = assay: qPCR of the other Wnt molecules in skin tissue; assay type: in vivo, mouse; details: P>0.05
Experimental: To illustrate the regulation of JP1 on the upstream Wnt ligand of β-catenin, this example intersected classical signaling pathway-related Wnt ligands and AGA-related Wnt ligands, and screened out the related Wnt ligands, including Wnt1, Wnt3a, Wnt7b, Wnt10a, and Wnt10b. In this example, qPCR was used to detect the mRNA expression of these Wnt molecules in the skin tissue of the mouse model in Example 6.
as §4, §5

AR = assay: qPCR of AR mRNA in skin tissue of model mice; assay type: in vivo, mouse; details: model II, P>0.05
Experimental: (§6) 6.1) Sample preparation: 15-20 mg of mouse skin tissue was placed in a 1.5 mL centrifuge tube, and 600 μL of pre-cooled lysate was quickly added, and homogenized with an electric homogenizer. The homogenate obtained was blown gently 10 times, left at room temperature for 3-5 min, then centrifuged at 14,000×g for 5 min, and the supernatant was transferred to a new centrifuge tube with a pipette gun of suitable volume.
6.10) Reverse transcribe the RNA into cDNA according to the instructions of the reverse transcription kit, and then carry out subsequent experiments or store at −20° C. for later use.
as §4, §5

Lef1 = assay: qPCR of Lef1 mRNA in skin tissue; assay type: in vivo, mouse
Experimental: as §6, §4, §5

Wnt signaling pathway = assay: Proteomics and protein phosphorylation sequencing of skin tissue (KEGG, GSEA); assay type: in vivo, mouse
Experimental: Appropriate amounts of mouse skin tissues (n=3) from the model group and 1% JP1 group were added to a mortar pre-cooled with liquid nitrogen, and ground thoroughly with liquid nitrogen into powders. The samples were separately added to lysis buffer and lysed by ultrasonication. The centrifugation was performed at 4° C., 12,000×g for 10 min, and protein concentration was determined by BCA. Trypsin digestion was followed by liquid chromatography-mass spectrometry serial analysis.

p-MEK = assay: Immunoblotting of p-MEK in skin tissue; assay type: in vivo, mouse; details: P<0.05, dose-effect relationship
Experimental: as §1, §2, §3

[2] = H&E longitudinal section, each JP1 treatment group vs model and solvent groups

Substance: FPGSDRF-RGD (FPG[pS]DRFRGD) [JP1, amino acid S is phosphorylated; JWA peptide]
- hair growth index (skin color score) vs model group ([1]; 1% JP1, intraperitoneal injection, P>0.05): statistically not significant
- hair growth index (skin color score) vs solvent group (vehicle (apply)) ([1]; 2% JP1 (apply), topical skin coating): higher than that of the solvent group
- hair growth index (skin color score) vs model group ([1]; 2% JP1 (apply), topical skin coating, P<0.05): higher than that of the model group
- hair growth index (skin color score) vs model group ([1]; 2% JP1, intraperitoneal injection, P<0.001): significantly higher than that of the model group
- hair growth (skin appearance on the back) ([1]; AGA mice, JP1 injected intraperitoneally or applied to the skin): promoted hair growth
- dermal layer thickness [1, 2]: increased dermal layer thickness
- hair follicle length [1, 2]: longer hair follicle length
- difference in body weight gain between groups ([1]; during mouse modeling, P>0.05): not statistically significant
- effect on hair follicle cycle relative to minoxidil ([1]; skin of AGA model mice): comparable to the effect of minoxidil
- hair follicle cycle (resting phase / anagen phase) ([1]; skin of AGA model mice): shorten the resting phase of the hair follicle
- β-catenin immunohistofluorescence staining (β-catenin): trend consistent with the results of protein immunoblotting experiments
- β-catenin protein expression (β-catenin; protein immunoblotting, dose-effect relationship for JP1): increased
- β-catenin mRNA expression vs model group (β-catenin; qPCR): increased
- mRNA levels of the other Wnt molecules among the groups (Wnt1, Wnt3a, Wnt7b): not statistically significant
- AR mRNA level, difference between groups (AR): no statistically significant difference
- Lef1 mRNA expression vs model group (Lef1): increased
- KEGG signaling pathway analysis, differences 1% JP1 vs model group (Wnt signaling pathway; skin tissue, proteomics): mainly enriched in the Wnt signaling pathway
- GSEA analysis of Wnt/β-catenin signaling pathway (Wnt signaling pathway; skin tissues of JP1-treated mice): enriched
- p-MEK expression level (p-MEK): elevated
